According to patent US6989396B2, “Tropane alkaloid multidrug resistance inhibitors from Erythroxylum pervillei and use of the same” (The Board of Trustees of the University of Illinois, priority 2001, dated 2006):
Where “and” joins values, the source holds several entries; their conditions need not be identical. Equal entries are not always repeated.

Columns and labels:
KB-V1 cells [1] = conditions: growth inhibitory effect of vinblastine; cited from earlier work
KB-V1 cells [2] = experiment: In vivo hollow fiber test: KB-V1; set-up: species or system NCr nu/nu mice
Method: (§1) In vivo hollow fiber test. […] Confluent monolayers of KB-3, KB-V1 or KB-8-5 cells were harvested, collected by centrifugation and resuspended in conditioned medium at a concentration of 7.5×10^5 cells/ml.
(§2) Test compounds were administrated once daily by intraperitoneal injection from day 3–6 after implantation. Body weights were measure daily.
(§3) After incubating at 37° C. for 4 hours, the culture medium was aspirated and the samples were washed twice with normal saline containing 2.5% protamine sulfate solution by overnight incubation at 4° C. […] The formazan was extracted from each sample with DMSO (250 μl/well) for 4 hours at room temperature on a rotation platform.

CEM/VLB100 cells = experiment: MDR reversal in drug-resistant human leukemia CEM/VLB100 cells; type: cell-based; conditions: Homo sapiens; CEM/VLB100 cells; read-out: IC50 value of the cytotoxic drug in the absence of modulator
Method: Cytotoxic potential. The cytotoxic potential of test substances with KB-3, KB-V1 and KB-8-5 cells was determined as described previously (24). Briefly, various concentrations of test compounds (dissolved in 10 μl of 10% DMSO) were transferred to 96-well plates, and 190 μl aliquots of cell suspensions (5×10^4 cells/ml) were added to each well. The plates then were incubated for 72 hours at 37° C. (100% humidity with a 5% CO2 atmosphere in air), and 100 μl of cold 20% aqueous trichloroacetic acid were added to the growth medium in each well to fix the cells. The cultures were incubated at 4° C. for 30 minutes, washed, air-dried, stained with sulforhodamine B solution, and washed with 1% acetic acid. […] In each case, a zero-day control was performed by adding an equivalent number of cells to several wells and incubating at 37° C. for 30 minutes, and processing as described above. Optical density values obtained with the zero-day control were subtracted, and cell survival, relative to control (solvent-treated) cultures, was calculated. The cytotoxic potential of the compounds with CEM and CEM/VLB100 cells was determined as described by Beck et al. (30). Cells were grown in 24-well plates at a density of 5–6×10^5 cells/ml. At 48 hours, the cell number was determined using a Coulter Counter, with a channelizer to distinguish cells from debris.

KB-3 cells = experiment: Growth inhibitory potential (sulforhodamine B cell survival assay): KB-3; type: cell-based; conditions: Homo sapiens, KB3; 72 hours; read-out: IC50 KB-3
Method: One part of a natural product drug discovery program involves monitoring the potential of plant extracts to reverse multiple drug resistance. […] To investigate the potential of plant extracts or compounds to reverse multidrug-resistance, KB-V1 cells are treated with different concentrations of plant extracts or compounds in the presence (1 μg/ml) or absence of vinblastine.
Cytotoxic potential. The cytotoxic potential of test substances with KB-3, KB-V1 and KB-8-5 cells was determined as described previously (24). Briefly, various concentrations of test compounds (dissolved in 10 μl of 10% DMSO) were transferred to 96-well plates, and 190 μl aliquots of cell suspensions (5×10^4 cells/ml) were added to each well. The plates then were incubated for 72 hours at 37° C. (100% humidity with a 5% CO2 atmosphere in air), and 100 μl of cold 20% aqueous trichloroacetic acid were added to the growth medium in each well to fix the cells. The cultures were incubated at 4° C. for 30 minutes, washed, air-dried, stained with sulforhodamine B solution, and washed with 1% acetic acid. Finally, 200 μl of 10 mM Tris base were added to each well and the optical densities were determined at 515 nm utilizing an ELISA plate reader. In each case, a zero-day control was performed by adding an equivalent number of cells to several wells and incubating at 37° C. for 30 minutes, and processing as described above. Optical density values obtained with the zero-day control were subtracted, and cell survival, relative to control (solvent-treated) cultures, was calculated. The cytotoxic potential of the compounds with CEM and CEM/VLB100 cells was determined as described by Beck et al. (30). Cells were grown in 24-well plates at a density of 5–6×10^5 cells/ml. At 48 hours, the cell number was determined using a Coulter Counter, with a channelizer to distinguish cells from debris.

KB-8-5 cells = experiment: In vivo hollow fiber test: KB-8-5; set-up: species or system NCr nu/nu mice; conditions: vinblastine 100 μg/kg; reversing agents 0.136 mmol/kg
Method: as §1, §2, §3

In the case of CC[C@]1(O)C[C@@H]2CN(CCc3c([nH]c4ccccc34)[C@@](C(=O)OC)(c3cc4c(cc3OC)N(C)[C@H]3[C@@](O)(C(=O)OC)[C@H](OC(C)=O)[C@]5(CC)C=CCN6CC[C@]43[C@@H]65)C2)C1 [vinblastine, reference compound], the “resistance of KB-V1 cells relative to parental KB-3 cells” value (KB-V1 cells [1]) is listed as over 200 fold, the “growth inhibition, administered as single agents” value (KB-V1 cells [2]; KB-V1 or KB-8-5 cells in hollow fibers implanted into NCr nu/nu mice) is listed as “not significantly inhibited” and the “Observed inhibition from coadministration with vinblastine, KB-V1, i.p. site” value (KB-V1 cells [2]; vinblastine 250 μg/kg + reversing agent 0.136 mmol/kg, i.p. injection once daily days 3–6) is listed as 60.3%. The “Growth inhibition, single agent, KB-V1, s.c. site” value (KB-V1 cells [2]; vinblastine 250 μg/kg, reversing agents 0.136 mmol/kg, i.p. injection once daily days 3–6) was 3.8% and 0%, the IC50 (CEM/VLB100 cells) was 5000 nM and the IC50 (KB-3 cells) was 40 nM. For the same compound, the “Growth inhibition, single agent, KB-8-5, s.c. site” value (KB-8-5 cells) was 2.3%.
